Source: patent publication US20110092544A1, “FUNGICIDAL PYRIDINES” (E.I. DU PONT DE nemours and company, priority 2008, published 2011)

Assays:
Assay type in all cases: in vivo
[1] = system: Erysiphe graminis f. sp. tritici; assay: Test A: wheat powdery mildew, preventive spray on wheat seedlings, visual disease rating
From the text: (§1) General protocol for preparing test suspensions for Tests A-H: The test compounds were first dissolved in acetone in an amount equal to 3% of the final volume and then suspended at the desired concentration (in ppm) in acetone and purified water (50/50 mix) containing 250 ppm of the surfactant Trem® 014 (polyhydric alcohol esters). The resulting test suspensions were then used in tests A-H. Spraying a 200 ppm test suspension to the point of run-off on the test plants was the equivalent of a rate of 500 g/ha.
The test suspension was sprayed to the point of run-off on wheat seedlings. The following day the seedlings were inoculated with a spore dust of Erysiphe graminis f. sp. tritici (the causal agent of wheat powdery mildew) and incubated in a growth chamber at 20° C. for 8 days, after which time disease ratings were visually made.
(§2) Results for Tests A-H are given in Table A. In the table, a rating of 100 indicates 100% disease control and a rating of 0 indicates no disease control (relative to the controls). A dash (-) indicates no test results. All results are for compounds tested at 200 ppm except where the compound number is followed by “*” which indicates the compound was tested at 40 ppm.

[2] = system: Puccinia recondite f. sp. tritici; assay: Test B: wheat leaf rust, preventive spray on wheat seedlings, visual disease rating
From the text: as §1
The test suspension was sprayed to the point of run-off on wheat seedlings. The following day the seedlings were inoculated with a spore suspension of Puccinia recondite f. sp. tritici (the causal agent of wheat leaf rust) and incubated in a saturated atmosphere at 20° C. for 24 h, and then moved to a growth chamber at 20° C. for 7 days, after which time disease ratings were visually made.
as §2

Septoria tritici = assay: Test C: wheat leaf blotch, preventive spray on wheat seedlings, visual disease rating
From the text: as §1
The test suspension was sprayed to the point of run-off on wheat seedlings. The following day the seedlings were inoculated with a spore suspension of Septoria tritici (the causal agent of wheat leaf blotch) and incubated in a saturated atmosphere at 20° C. for 48 h, and moved to a growth chamber at 20° C. for 19 additional days, after which time disease ratings were visually made.
as §2

Septoria nodorum = assay: Test D: wheat glume blotch, preventive spray on wheat seedlings, visual disease rating
From the text: as §1
The test suspension was sprayed to the point of run-off on wheat seedlings. The following day the seedlings were inoculated with a spore suspension of Septoria nodorum (the causal agent of wheat glume blotch) and incubated in a saturated atmosphere at 20° C. for 48 h, and then moved to a growth chamber at 20° C. for 7 days, after which time disease ratings were visually made.
as §2

Alternaria solani = assay: Test E: tomato early blight, preventive spray on tomato seedlings, visual disease rating
From the text: as §1
The test suspension was sprayed to the point of run-off on tomato seedlings. The following day the seedlings were inoculated with a spore suspension of Alternaria solani (the causal agent of tomato early blight) and incubated in a saturated atmosphere at 27° C. for 48 h, and then moved to a growth chamber at 20° C. for 5 days, after which time disease ratings were visually made.
as §2

Botrytis cinerea = assay: Test F: tomato botrytis, preventive spray on tomato seedlings, visual disease rating
From the text: as §1
The test suspension was sprayed to the point of run-off on tomato seedlings. The following day the seedlings were inoculated with a spore suspension of Botrytis cinerea (the causal agent of tomato botrytis) and incubated in saturated atmosphere at 20° C. for 48 h, and then moved to a growth chamber at 24° C. for 3 additional days, after which time disease ratings were visually made.
as §2

[3] = 40 ppm (compound number followed by *)
[4] = 200 ppm, 100 = 100% disease control, 0 = no control

Compound	Test A rating (% disease control) [1, 3] [%]	Test B rating (% disease control) [2, 3] [%]	Test C rating (% disease control) (Septoria tritici; [3]) [%]	Test D rating (% disease control) (Septoria nodorum; [3]) [%]	Test E rating (% disease control) (Alternaria solani; [3]) [%]	Test F rating (% disease control) (Botrytis cinerea; [3]) [%]	further results
COc1cc(OC)cc(-c2c(C(C)(C)O)cnc(C)c2-c2c(F)cc(OC)cc2F)c1 [Compound 72, 5-(2,6-difluoro-4-methoxyphenyl)-4-(3,5-dimethoxyphenyl)-α,α,6-trimethyl-3-pyridinemethanol]							pest or weed control at 200 ppm ([1]; Blumeria graminis, 192 h, 200 ppm, 100 = 100% disease control, 0 = no control): 100%; pest or weed control at 200 ppm ([2]; 192 h, 200 ppm, 100 = 100% disease control, 0 = no control): 100%; pest or weed control at 200 ppm (Septoria tritici; Zymoseptoria tritici, 504 h, 200 ppm, 100 = 100% disease control, 0 = no control): 95%; pest or weed control at 200 ppm (Septoria nodorum; Parastagonospora nodorum, 216 h, 200 ppm, 100 = 100% disease control, 0 = no control): 100%; pest or weed control at 200 ppm (Alternaria solani; Alternaria solani, 168 h, 200 ppm, 100 = 100% disease control, 0 = no control): 100%; pest or weed control at 200 ppm (Botrytis cinerea; Botrytis cinerea, 120 h, 200 ppm, 100 = 100% disease control, 0 = no control): 99%
CCC(C)c1cnc(C)c(-c2c(F)cc(F)cc2F)c1-c1cc(OC)cc(OC)c1 (stereo not drawn) [Compound 73]	100	100	94	0	91	99	
C=C(C)c1cnc(C)c(-c2c(F)cc(OC)cc2F)c1-c1cc(OC)cc(OC)c1 [Compound 74]							Test A rating (% disease control) [1, 4]: 100%; Test B rating (% disease control) [2, 4]: 100%; Test C rating (% disease control) (Septoria tritici; [4]): 98%; Test D rating (% disease control) (Septoria nodorum; [4]): 100%; Test E rating (% disease control) (Alternaria solani; [4]): 100%; Test F rating (% disease control) (Botrytis cinerea; [4]): 98%
COc1cc(OC)cc(-c2c(C(C)C)cnc(C)c2-c2c(F)cc(OC)cc2F)c1 [Compound 75]	99	100	96	99	100	99	
COc1cc(OC)cc(-c2c(-c3c(F)cccc3F)cnc(Cl)c2-c2c(F)cccc2F)c1 [Compound 76]	0	28	0	0	0	0	
C=C(C)c1cnc(C)c(-c2c(F)ccc(F)c2F)c1-c1cc(OC)cc(OC)c1 [Compound 77]	100	99	92	0	99	84	
COc1cc(OC)cc(-c2c(C3CCOCC3)cnc(C)c2-c2c(F)cc(F)cc2F)c1 [Compound 79]	97	100	93	95	100	91	
COc1cc(OC)cc(-c2c(-c3c(F)cc(F)cc3F)cnc(Cl)c2-c2c(F)cc(F)cc2F)c1 [Compound 80]							Test A rating (% disease control) [1, 4]: 95%; Test B rating (% disease control) [2, 4]: 97%; Test C rating (% disease control) (Septoria tritici; [4]): 57%; Test D rating (% disease control) (Septoria nodorum; [4]): 0%; Test E rating (% disease control) (Alternaria solani; [4]): 64%; Test F rating (% disease control) (Botrytis cinerea; [4]): 0%
COc1cc(OC)cc(-c2c(-c3c(F)cccc3F)cnc(C#N)c2-c2c(F)cccc2F)c1 [Compound 81]							Test A rating (% disease control) [1, 4]: 78%; Test B rating (% disease control) [2, 4]: 96%; Test C rating (% disease control) (Septoria tritici; [4]): 93%; Test D rating (% disease control) (Septoria nodorum; [4]): 0%; Test E rating (% disease control) (Alternaria solani; [4]): 98%; Test F rating (% disease control) (Botrytis cinerea; [4]): 46%
COc1ccc(-c2c(C)ncc(C(C)CO)c2-c2cc(OC)cc(OC)c2)cc1 (stereo not drawn) [Compound 82]							Test A rating (% disease control) [1, 4]: 97%; Test B rating (% disease control) [2, 4]: 98%; Test C rating (% disease control) (Septoria tritici; [4]): 95%; Test D rating (% disease control) (Septoria nodorum; [4]): 69%; Test E rating (% disease control) (Alternaria solani; [4]): 98%; Test F rating (% disease control) (Botrytis cinerea; [4]): 98%
COc1cc(OC)cc(-c2c(C3CCSCC3)cnc(C)c2-c2ccc(F)cc2)c1 [Compound 84]	96	98	96	0	0	49	
COc1cc(OC)cc(-c2c(-c3ccccc3)cnc(C)c2-c2ccccc2F)c1 [Compound 86]	96	98	93	0	31	92	
COc1cc(OC)cc(-c2c(-c3ccccc3)cnc(C)c2-c2c(F)cccc2F)c1 [Compound 87]	98	96	95	0	0	72	
COc1cc(OC)cc(-c2c(-c3ccc(F)cc3)cnc(C)c2-c2ccc(F)cc2)c1 [Compound 88]	58	53	77	0	0	99	
COc1cc(OC)cc(-c2c(C(C)CO)cnc(C)c2-c2c(F)cccc2F)c1 (stereo not drawn) [Compound 90]	0	74	90	0	98	71	
COc1cc(OC)cc(-c2c(C(C)CO)cnc(C)c2-c2c(F)cc(OC)cc2F)c1 (stereo not drawn) [Compound 92]	76	99	96	82	100	94	
COc1cc(OC)cc(-c2c(-c3ccc(F)cc3)cnc(C)c2-c2c(F)cc(F)cc2F)c1 [Compound 93]	96	91	93	0	21	98	
COc1cc(OC)cc(-c2c(-c3ccc(F)cc3)cnc(C)c2-c2ccccc2F)c1 [Compound 94]							Test A rating (% disease control) [1, 4]: 21%; Test B rating (% disease control) [2, 4]: 54%; Test C rating (% disease control) (Septoria tritici; [4]): 91%; Test D rating (% disease control) (Septoria nodorum; [4]): 0%; Test E rating (% disease control) (Alternaria solani; [4]): 0%; Test F rating (% disease control) (Botrytis cinerea; [4]): 98%
